Experimental findings from patent US20100310660A1, “DRY POWDER MICROPARTICLES FOR PULMONARY DELIVERY” (TAIPEI MEDICAL UNIVERSITY, priority 2009, published 2010) are described below.

The assay relates to A549 cells. In words: Photocytotoxicity (MTT assay after LED irradiation). It is filed as cell-based, Human. The conditions noted are these: 0.5 μg/ml Hp, 3 hours. As to the method:
Human lung adenocarcinoma A549 cells were kept in a humidified incubator containing 5% CO2 at 37° C. A549 cells were cultured in DMEM supplemented with 10% fetal bovine serum (FBS) and 1% penicillin-streptomycin (GIBCO BRL, USA). The cells were routinely grown in tissue culture flask and harvested with a solution of 1% trypsin while in the logarithmic phase of growth. The cells were kept in the above culture conditions for experiments.
A549 cells were grown in 96-well plates at a density of 8×10^3 cells/well for 24 hours. […] The cells were incubated for 3 hours (protection from light) and washed once with 100 μl PBS/well. The no phenol red medium (100 μl/well) was added to the cells and then irradiated with various doses of light using LED (635±5 nm, 60 mW/cm^2) light source. After light irradiation, the original medium was removed and DMEM containing 10% FBS was added to each well. Twenty-four hours later, cell survival was measured using an MTT [3(4,5-dimethyl-thiazoyl-2-yl) 2,5 diphenyl-tetrazolium bromide] assay. The MTT assay was based on the activity of mitochondria dehydrogenases wherein a water-soluble tetrazolium salt was reduced to a purple insoluble formazan product. The amount of MTT formazan product was analyzed with spectrophotometer at the absorbance of 570 nm.
(In general: Formazan colour is commonly taken as a measure of viable cells.)

Each structure is given as a SMILES string. Counter-ions that a name gives are not always drawn.

The compound `CC1=C(CCC(=O)O)c2cc3[nH]c(cc4nc(cc5[nH]c(cc1n2)c(C)c5C(C)O)C(C)=C4C(C)O)c(C)c3CCC(=O)O` (centres unmarked) [Hp, Hematoporphyrin Dihydrochloride] displayed a cells alive (irradiation at 4 J/cm2) of 89% and a cells alive (irradiation at 12 J/cm2) of 75%.
